From ChEMBL document CHEMBL4393655, “Evaluation of synthetic substituted 1,2-dioxanes as novel agents against human leishmaniasis” (Eur J Med Chem, 2019)

What was measured:
[1] = test system: Leishmania donovani; assay: Antileishmanial activity against promastigote stage of Leishmania donovani MHOM/ET/67/HU3 assessed as parasite growth inhibition after 3 days by MTT assay; assay type: functional, organism-based; conditions: MHOM/ET/67/HU3, 72 h
[2] = test system: Leishmania major; assay: Antileishmanial activity against late log/stationary phase of promastigote stage of Leishmania major MHOM/SU/73/5-ASKH assessed as parasite growth inhibition after 72 hrs by plate reader based Alamar blue assay; assay type: functional, organism-based
[3] = Selectivity index, ratio of CC50 for African green monkey Vero cells to IC50 for Leishmania donovani MHOM/NP/02/BPK282/0c14; assay type: toxicity; conditions: for selectivity ratio: Vero cells, read-out: Ratio CC50/IC50
[4] = (§1) Cytotoxicity against African green monkey Vero cells after 72 hrs by plate reader based Alamar blue assay; assay type: cell-based; conditions: chlorocebus sabaeus, Vero cells
[5] = test system: Leishmania infantum; assay: Antileishmanial activity against late log/stationary phase of promastigote stage of Leishmania infantum MHOM/TN/80/IPT1 assessed as parasite growth inhibition after 72 hrs by plate reader based Alamar blue assay; assay type: functional, organism-based; conditions: MHOM/TN/80/IPT1, 72 h
[6] = test system: Leishmania tropica; assay: Antileishmanial activity against late log/stationary phase of promastigote stage of Leishmania tropica MHOM/SU/74/K27 assessed as parasite growth inhibition after 72 hrs by plate reader based Alamar blue assay; assay type: functional, organism-based; conditions: MHOM/SU/74/K27, 72 h
[7] = test system: Leishmania donovani; assay: Antileishmanial activity against late log/stationary phase of promastigote stage of Leishmania donovani MHOM/NP/02/BPK282/0c14 assessed as parasite growth inhibition after 72 hrs by plate reader based Alamar blue assay; assay type: functional, organism-based
[8] = test system: Leishmania donovani; assay: Antileishmanial activity against amastigote stage of Leishmania donovani MHOM/NP/02/BPK282/0c14 infected in human THP1 cells assessed as parasite growth inhibition after 72 hrs by Giemsa staining-based light microscopic analysis; assay type: functional, organism-based; conditions: MHOM/NP/02/BPK282/0c14, THP-1, 72 h
[9] = test system: Vero; assay: as §1; assay type: cell-based; conditions: chlorocebus sabaeus, vero, 72 h
[10] = test system: Leishmania donovani; assay: Antileishmanial activity against promastigote stage of Leishmania donovani NLB-065 assessed as parasite growth inhibition after 72 hrs by microscopic analysis; assay type: functional, organism-based; conditions: NLB-065, 72 h
[11] = test system: Leishmania donovani; assay: Antileishmanial activity against promastigote stage of Leishmania donovani MHOM/IN/83/AG83 assessed as inhibition of parasite viability after 48 hrs by MTS assay; assay type: functional, organism-based; conditions: MHOM/IN/83/AG83, 48 h
[12] = test system: Leishmania donovani; assay: Antileishmanial activity against promastigote stage of Leishmania donovani assessed as parasite growth inhibition after 72 hrs by resazurin dye based assay; assay type: functional, organism-based
[13] = test system: Leishmania infantum; assay: Antileishmanial activity against amastigote stage of Leishmania infantum MHOM/PT/88/IMT151 infected in human THP-1 cells assessed as parasite growth inhibition after 48 hrs by microscopic analysis; assay type: functional, organism-based; conditions: MHOM/PT/88/IMT151, THP-1, 48 h
[14] = test system: Leishmania infantum; assay: Antileishmanial activity against promastigote stage of Leishmania infantum MHOM/PT/88/IMT151 as parasite growth inhibition after 48 hrs by MTT assay; assay type: functional, organism-based; conditions: MHOM/PT/88/IMT151, 48 h
[15] = Solubility of the compound; assay type: physicochemical
[16] = Leishmania donovani, MHOM/NP/02/BPK282/0c14, 72 h

| Compound | selectivity ratio [3] | CC50 at 72 h [4] [µM] | IC50 [7, 16] [µM] | other results |
| --- | --- | --- | --- | --- |
| CCCCCCCCCCCCCCCCOP(=O)([O-])OCC[N+](C)(C)C [MILTEFOSINE] |  |  |  | IC50 [1]: 1.9 to 68.1 µM |
| CCCCC1(CCCC)C[C@@H](CNCCCn2ccnc2)[C@@](C)(OC)OO1 (racemic) | 13.5 | 74.5 | 7.5 | IC50 [2]: 11.8 µM; IC50 [5]: 3 µM; IC50 [6]: 8.9 µM; IC50 [8]: 12.2 µM |
| CO[C@@]1(C)OOC(C)(C)C[C@H]1COCc1cn(CCC[P+](c2ccccc2)(c2ccccc2)c2ccccc2)nn1 (racemic) |  |  | > 40 |  |
| CCCCC1(CCCC)C[C@@H](CNCCCn2ccnc2)[C@@](CCCC)(OC)OO1 (racemic) | 5.2 | 32.5 | 6.2 |  |
| C[C@@H]1[C@H](O)[C@@H](C)/C=C/C=C/C=C/C=C/C=C/C=C/C=C/[C@H](O[C@@H]2O[C@H](C)[C@@H](O)[C@H](N)[C@@H]2O)C[C@@H]2O[C@](O)(C[C@@H](O)C[C@@H](O)[C@H](O)CC[C@@H](O)C[C@@H](O)CC(=O)O[C@H]1C)C[C@H](O)[C@H]2C(=O)O [AMPHOTERICIN B] | 667 |  | 0.3 | IC50 [1]: 0.03 to 2.8 µM |
| CCCCC1(CCCC)C[C@@H](CNCCCn2cncn2)[C@@](C)(OC)OO1 (racemic) |  |  | > 40 |  |
| COC(=O)C1CC(c2ccccc2)(c2ccccc2)OOC1(C)OC (centres undefined) |  |  | > 40 |  |
| CCCC[C@]1(OC)OOC(c2ccccc2)(c2ccccc2)C[C@H]1CNCCCn1ccnc1 (racemic) | 2.3 | 9.5 | 4.2 |  |
| CCCC[C@]1(OC)OOC(C)(C)C[C@H]1CNCCCn1ccnc1 (racemic) |  |  | > 40 |  |
| CO[C@]1(C)OOC2(CC[C@H]3C[C@@H]2C3(C)C)C[C@H]1CNCCCn1ccnc1 (mixture of isomers; form 2) |  |  |  | IC50 [2]: 25 µM; Ratio CC50/IC50 ([3]; vero): 34.6; CC50 [9]: 276 µM; IC50 [5]: 5 µM; IC50 [6]: 24 µM; IC50 [7]: 8 µM; IC50 [8]: 9.7 µM |
| OC(Cn1cncn1)(Cn1cncn1)c1ccc(F)cc1F [FLUCONAZOLE] |  |  | > 40 |  |
| C[C@H]1[C@H](OC(=O)CCC(=O)O)O[C@@H]2O[C@@]3(C)CC[C@H]4[C@H](C)CC[C@@H]1[C@@]24OO3 [SODIUM ARESUNATE] |  |  | > 40 | IC50 [10]: 12.1 µM |
| CO[C@@]1(C)OOC(c2ccccc2)(c2ccccc2)C[C@H]1CNCCCn1ccnc1 (racemic) | 6.7 | 50 | 7.5 |  |
| C[C@@H]1CC[C@H]2[C@@H](C)C(=O)O[C@@H]3O[C@@]4(C)CC[C@@H]1[C@]32OO4 [ARTEMISININ] |  |  | > 40 | IC50 [11]: 100 to 160 µM |
| CCCCC1(CCCC)C[C@@H](C(=O)OC)[C@](C)(OC)OO1 (racemic) |  |  | > 40 |  |
| NC[C@@H]1O[C@H](O[C@H]2[C@@H](O)[C@H](O[C@@H]3[C@@H](O)[C@H](N)C[C@H](N)[C@H]3O[C@H]3O[C@H](CO)[C@@H](O)[C@H](O)[C@H]3N)O[C@@H]2CO)[C@H](N)[C@@H](O)[C@@H]1O [PAROMOMYCIN] |  |  |  | IC50 [12]: 19.7 to 28.1 µM |
| CO[C@@]1(C)OOC(c2ccccc2)(c2ccccc2)C[C@H]1COCc1cn(CCC[P+](c2ccccc2)(c2ccccc2)c2ccccc2)nn1 (racemic) | 24.3 | 280 | 13.8 | IC50 [2]: 2.6 µM; IC50 [5]: 10 µM; IC50 [6]: 6 µM; IC50 [8]: 16.5 µM |
| C=CCO[C@@]1(C(F)(F)F)O[C@@H]2O[C@@]3(C)C[C@H]4[C@H](C)CC[C@@H]([C@H]1C)[C@@]24OO3 |  |  |  | IC50 [1]: 1.6 to 6.25 µM |
| CCCCC1(CCCC)C[C@@H](CNCCCn2ccnc2)[C@](C)(OC)OO1 (racemic) | 35 | 140 | 5.2 | IC50 [2]: 3.2 µM; IC50 [5]: 2.5 µM; IC50 [6]: 3 µM; IC50 [8]: 10.1 µM |
| O=C1CCC2(CC1)OOC1(O2)C2CC3CC(C2)CC1C3 (centres undefined) |  |  |  | IC50 [13]: 79.8 µM; IC50 [14]: 9.35 µM |
| CCCCC1(CCCC)C[C@@H](COCc2cn(CCC[P+](c3ccccc3)(c3ccccc3)c3ccccc3)nn2)[C@](C)(OC)OO1 (racemic) | 5 | 200 | 40 |  |

| Compound | selectivity ratio [3] | CC50 at 72 h [4] [µM] | IC50 [7, 16] [µM] | other results |
| --- | --- | --- | --- | --- |
| CCCCC1(CCCC)C[C@@H](C(=O)OC)[C@@](C)(O)OO1 (racemic) |  |  | > 40 |  |
| CO[C@@]1(C)OOC2(CC[C@H]3C[C@@H]2C3(C)C)C[C@H]1CNCCCn1ccnc1 (mixture of isomers) | 16.8 | 274 | 16.3 | IC50 [2]: 15.5 µM; IC50 [5]: 6 µM; IC50 [6]: 35 µM; IC50 [8]: 23.5 µM |
| COC(=O)C1CC(c2ccccc2)(c2ccccc2)OOC1(C)O (centres undefined) |  |  | > 40 |  |
| CO[C@@]1(C)OOC(c2ccc(F)cc2)(c2ccc(F)cc2)C[C@H]1CNCCCn1ccnc1 (racemic) | 7.8 | 93.6 | 12 |  |
| C[C@H]1[C@@H](O)O[C@@H]2O[C@@]3(C)CC[C@H]4[C@H](C)CC[C@@H]1[C@@]24OO3 [ARTENIMOL] |  |  |  | IC50 [1]: 4.1 to 20.2 µM |
| CCCCC1(O)OOC(c2ccccc2)(c2ccccc2)CC1C(=O)OC (centres undefined) |  |  |  | solubility [15]: Insoluble |
| NCC1CC[C@]2(CC1)OO[C@]1(O2)C2CC3CC(C2)CC1C3 (some centres undefined) |  |  |  | IC50 [13]: 108 µM; IC50 [14]: 3.51 µM |
| CCCCC1(CCCC)C[C@@H](COCc2cn(CCC[P+](c3ccccc3)(c3ccccc3)c3ccccc3)nn2)[C@@](C)(OC)OO1 (racemic) | 6.6 | 102 | 15.5 |  |
| CCCCC1(CCCC)C[C@@H](CO)[C@@](C)(OC)OO1 (racemic) |  |  | > 40 |  |
| CCCCC1(CCCC)C[C@@H](C(=O)OC)[C@@](C)(OC)OO1 (racemic) |  |  | > 40 |  |
| CCCCC1(CCCC)C[C@@H](CO)[C@](C)(OC)OO1 (racemic) |  |  | > 40 |  |
| CCN(CC)CCCCCCNc1cc(OC)cc2c(C)ccnc12 [SITAMAQUINE] |  |  |  | IC50 [1]: 36.1 to 179 µM |
| CCCCC1(CCCC)C[C@@H](COCc2cn(CC(O)(Cn3cncn3)c3ccc(F)cc3F)nn2)[C@@](C)(OC)OO1 (mixture of isomers) | 12.2 | 195 | 16 | IC50 [2]: 38.4 µM; IC50 [5]: 12 µM; IC50 [6]: 38 µM; IC50 [8]: 13 µM |
| CO[C@@]1(C)OOC(C)(C)C[C@H]1CNCCCn1ccnc1 (racemic) |  |  | > 40 |  |
| C=CCO[C@@]1(C(F)(F)F)O[C@@H]2O[C@@]3(C)C[C@H]4[C@H](C)CC[C@@H](C1=C)[C@@]24OO3 |  |  |  | IC50 [1]: 5.5 to 12.4 µM |
| COC1(C)OOC(c2ccccc2)(c2ccccc2)CC1CO (centres undefined) |  |  | > 40 |  |
| CCCCC1(CCCC)C[C@@H](CNCCCNc2ccnc3cc(Cl)ccc23)[C@@](C)(OC)OO1 (racemic) | 2.5 | 4 | 1.6 |  |
| C[C@@H]1CC[C@H]2[C@@H](C)[C@](OO)(C(F)(F)F)O[C@@H]3O[C@@]4(C)C[C@@H]1[C@]32OO4 |  |  |  | IC50 [1]: 2.5 to 12.5 µM |
| CO[C@]1(C)OOC2(CC[C@H]3C[C@@H]2C3(C)C)C[C@H]1CNCCCn1ccnc1 (mixture of isomers; form 1) | 18.3 | 300 |  | IC50 [7]: 16.4 µM |
| COc1ccc(N[C@@]2(C(F)(F)F)O[C@@H]3O[C@@]4(C)C[C@H]5[C@H](C)CC[C@@H]([C@H]2C)[C@@]35OO4)cc1 |  |  |  | IC50 [1]: 0.38 to 1.5 µM |
